One data set has as its system E. coli. In words: Serial dilution MIC test, E. coli. It counts as cell-based. The conditions noted are these: Escherichia coli, read-out: MINIMUM […]. E. coli; trypticase soy broth, 37° C, 36 hours; read-out: MINIMUM INHIBITORY CONCN. E. coli. On the procedure: (§1) A quantitative serial dilution test may also be performed by the following procedure.
(§2) A 20 mg/ml solution of the compound to be tested is prepared in a standard brain-heart infusion broth medium which has been diluted with water to one-half standard strength.
(§3) Serial dilutions are prepared by adding 1 ml of the solution to a test tube containing 9 ml of medium. Five milliliters of the resulting solution are then added to another test tube containing 5 ml of the medium. The resulting solution is then again diluted by the same procedure. Ordinarily one tenfold dilution and four twofold dilutions are made. The procedure can be continued if more dilute solutions are required. Each of the series of tubes containing solutions of the compounds to be assayed is inoculated with two drops of a heavy culture of the chosen microorganisms in the brain-heart infusion broth. The tubes are incubated at 37° C for 36 hours and the most dilute solution showing no microbial growth is noted. The concentration of this solution is reported as the minimal inhibitory concentration (MIC).
(§4) A number of compounds of this invention were tested for in vitro antimicrobial activity against several pathogenic microorganisms using the above described procedure except that trypticase soy broth was used in place of half strength brain-heart infusion as the medium.

A further data set deals with A. niger. Briefly: Serial dilution MIC test, A. niger. The conditions noted are these: Aspergillus niger; trypticase soy broth, 37° C, 36 hours; read-out: MINIMUM INHIBITORY CONCN. A. niger. The data set is classed as cell-based. On the procedure:
as §1, §2, §3, §4

The subject of a further data set is S. aureus. Briefly: Serial dilution MIC test, S. aureus. The data set is classed as cell-based. As to conditions: Staphylococcus aureus, read-out: MINIMUM […]. S. aureus; trypticase soy broth, 37° C, 36 hours; read-out: MINIMUM INHIBITORY CONCN. S. aureus. The protocol:
as §1, §2, §3, §4

The subject of a further data set is Ps. aeruginosa. Briefly: Serial dilution MIC test, Ps. aeruginosa. It counts as cell-based. The conditions noted are these: Pseudomonas aeruginosa; trypticase soy broth, 37° C, 36 hours; read-out: MINIMUM INHIBITORY CONCN. Ps. aeruginosa. The protocol:
as §1, §2, §3, §4

The subject of a further data set is C. albicans. Briefly: Serial dilution MIC test, C. albicans. As to conditions: Candida albicans; trypticase soy broth, 37° C, 36 hours; read-out: MINIMUM INHIBITORY CONCN. C. albicans. It counts as cell-based. On the procedure:
as §1, §2, §3, §4

Data set [1] relates to S. Mutans, Strain OMZ-176E. In words: Serial dilution minimum inhibitory concentration (MIC) test, S. mutans. The data set is classed as cell-based. As to conditions: Streptococcus mutans, half strength brain-heart infusion broth, 37° C, 36 hours. On the procedure:
as §3, with “A quantitative serial dilution test may also be performed by the following procedure. A 20 mg/ml solution of the compound to be tested is prepared in a standard brain-heart infusion broth medium which has been diluted with water to one-half standard strength. Serial” for “Serial”, “(MIC). The minimum inhibitory concentration of a number of a number of compounds of this invention with respect to the microorganism S. Mutans, Strain OMZ-176E were determined by the procedure described above. Chlorhexidine diacetate, a commercially successful antimicrobial, was used as a control.” for “(MIC).”

The nature of data set [2]: Staining of extracted human incisors in vitro. As to conditions: ten days; for discoloration of teeth: 0.2% and 1% solutions, 10 minutes daily, saliva at 37° C. On the procedure: The staining properties of the compound of Example II were compared with those of chlorhexidine by the following procedure. Test solutions were prepared containing 0.2% and 1% of chlorhexidine and 0.2% and 1% of the compound of Example II as the trimethanesulfonate salt. Extracted human incisors, which were used without cleaning or other treatment which would remove the dental pellicle, were suspended from wires. Daily, each tooth was immersed for 10 minutes in one of the test solutions, then suspended in whole stimulated saliva and incubated at 37° C for 24 hours.

The conditions of data set [3]: cited from earlier work; for taste perception of foodstuffs: for several hours; for clinical antiplaque effectiveness: in vivo; for local irritation: oral mucosa and tongue; for staining of teeth, tongue, gums, oral mucosa: prolonged use.

≈ marks a conversion by molar mass, not a printed value. Entries after “also recorded” stand apart in the source; their conditions may differ. Structures can show the parent of a compound that is named as a salt.

Regarding `N=C(NCCN1CCN(CCNC(=N)NC(=O)NC23CC4CC(CC(C4)C2)C3)CC1)NC(=O)NC12CC3CC(CC(C3)C1)C2` [1,4-bis[2-((1-adamantyl)carbamylguanidino)ethyl]piperazine dimethanesulfonic acid salt], the MIC was determined as 12.5 µg/mL in the data set on E. coli; 50 µg/mL with A. niger; 0.39 µg/mL in the data set with S. aureus; 6.25 µg/mL with Ps. aeruginosa; 0.78 µg/mL in the data set with C. albicans.

With `CC(C)(C)CC(C)(C)NC(=O)NC(=N)NCCCN1CCN(CCCNC(=N)NC(=O)NC(C)(C)CC(C)(C)C)CC1` [1,4-bis[3-(1,1,3,3-tetramethylbutylcarbamylguanidino)propyl]piperazine dihydrochloride], the MIC in data set [1] amounted to 1.25 µg/mL.

For `CCCCCC(C)NC(=O)NC(=N)NCCCN1CCN(CCCNC(=N)NC(=O)NC(C)CCCCC)CC1` (stereo not shown) [1,4-bis[3-(1-methylhexyl)carbamylguanidino)propyl]piperazine dihydrochloride], the MIC with E. coli stood at 12.5 µg/mL; with A. niger, 25 µg/mL; in the data set with S. aureus it was 1.56 µg/mL; in the data set with Ps. aeruginosa, 25 µg/mL; with C. albicans, 6.25 µg/mL.

For `N=C(NCCCN1CCN(CCCNC(=N)NC(=O)NCCc2ccc(Cl)cc2)CC1)NC(=O)NCCc1ccc(Cl)cc1` [1,4-bis[3-(2-(4-chlorophenyl)ethylcarbamylguanidino)propyl]piperazine dihydrochloride], the MIC in data set [1] is 1.25 µg/mL.

As to `CCCCC(CC)CNC(=O)NC(=N)NCCCN1CCN(CCCNC(=N)NC(=O)NCC(CC)CCCC)CC1` (stereo not shown) [1,4-bis[3-(2-ethylhexylcarbamylguanidino)propyl]piperazine dihydrochloride], the MIC in data set [1] was found to be 5 µg/mL.

Regarding `N=C(NCCCN1CCN(CCCNC(=N)NC(=O)NC23CC4CC(CC(C4)C2)C3)CC1)NC(=O)NC12CC3CC(CC(C3)C1)C2` [1,4-bis[3-((1-adamantyl)carbamylguanidino)propyl]piperazine dimethanesulfonic acid salt], the MIC in the data set with E. coli worked out at 25 µg/mL; with A. niger, 12.5 µg/mL; in the data set with S. aureus, 6.25 µg/mL; with Ps. aeruginosa it was 50 µg/mL; in the data set on C. albicans, 12.5 µg/mL.

As to `N=C(NCCCN1CCN(CCCNC(=N)NC(=O)NCC2CCCCCC2)CC1)NC(=O)NCC1CCCCCC1` [1,4-bis[3-(cycloheptylmethylcarbamylguanidino)propyl]piperazine dimethanesulfonic acid salt], the MIC with E. coli came out at 12.5 µg/mL; in the data set with A. niger, 50 µg/mL; with S. aureus, 0.78 µg/mL; in the data set with Ps. aeruginosa it was 12.5 µg/mL; in the data set with C. albicans, 0.78 µg/mL.

Consider `N=C(NCCCN1CCN(CCCNC(=N)NC(=O)NC2CCCCC2)CC1)NC(=O)NC1CCCCC1` [1,4-bis[3-(cyclohexylcarbamylguanidino)propyl]piperazine dimethanesulfonic acid salt], for which the MIC is 100 µg/mL with E. coli; 100 µg/mL with A. niger; 50 µg/mL in the data set on S. aureus; 100 µg/mL in the data set on Ps. aeruginosa; 50 µg/mL with C. albicans.

As to `N=C(NCCCN1CCN(CCCNC(=N)NC(=O)NCC2CCCCC2)CC1)NC(=O)NCC1CCCCC1` [1,4-bis[3-(cyclohexylmethylcarbamylguanidino)propyl]piperazine dimethanesulfonic acid salt], the MIC in the data set with E. coli is 6.25 µg/mL; in the data set with A. niger, 12.5 µg/mL; in the data set on S. aureus, 0.78 µg/mL; with Ps. aeruginosa, 100 µg/mL; with C. albicans it was 6.25 µg/mL.

In turn, `CCCCCCCCNC(=O)NC(=N)NCCCN1CCN(CCCNC(=N)NC(=O)NCCCCCCCC)CC1` [1,4-bis[3-(n-octylcarbamylguanidino)propyl]piperazine dihydrochloride] displayed an MIC in data set [1] of 2.5 µg/mL.

The compound `Cl.Cl.N=C(NCCCN1CCN(CCCNC(=N)NC(=O)NCC2CCCCC2)CC1)NC(=O)NCC1CCCCC1` [1,4-bis[(3-cyclohexylmethylcarbamylguanidino)propyl]piperazine dihydrochloride] registered an MIC in data set [1] of 1.25 µg/mL.

In turn, `CN(CCCNC(=N)NC(=O)Nc1ccc(Cl)cc1)CCCNC(=N)NC(=O)Nc1ccc(Cl)cc1` [1,7-bis(4-chlorophenylcarbamylguanidine)-4-methyl-4-azaheptane] displayed an MIC in data set [1] of 0.625 µg/mL (≈ 1.17 µM).

In turn, `CN(CCNC(=N)NC(=O)Nc1ccc(Cl)cc1)CCN(C)CCNC(=N)NC(=O)Nc1ccc(Cl)cc1` [1,8-bis(4-chlorophenylcarbamylguanidino)-3,6-dimethyl-3,6-diazaoctane] registered an MIC in data set [1] of 1.25 µg/mL (≈ 2.21 µM).

In data set [1], `N=C(NCCCN1CCN(CCCNC(=N)NC(=O)Nc2ccc(Cl)cc2)CC1)NC(=O)Nc1ccc(Cl)cc1` [Example II] gave an MIC of 0.156 to 0.312 µg/mL (≈ 0.264 to 0.527 µM). The discoloration of teeth result in data set [2] was “no signs of discoloration”.

For the compound `CCCCC(CC)CNC(=N)NC(=N)NCCCCCCNC(=N)NC(=N)NCC(CC)CCCC` (stereo not shown) [alexidine, 1,6-bis-(2-ethylhexylbiguanidino)hexane], in data set [3], the “taste perception of foodstuffs” value is on record as “alter taste perception of foodstuffs for several hours”; the clinical antiplaque effectiveness entry was “clinically effective antiplaque agents”; the local irritation result was “produce local irritation of the oral mucosa and tongue”; the “staining of teeth, tongue, gums, oral mucosa” value is reported as “produce stains of various colors on the teeth, tongue, gums, oral mucosa”.

`N=C(NCCCCCCNC(=N)NC(=N)Nc1ccc(Cl)cc1)NC(=N)Nc1ccc(Cl)cc1` [chlorhexidine diacetate, reference compound] returned an MIC in data set [1] of 0.156 to 0.312 µg/mL.

`[H]/N=C(\N/C(=N/[H])NCCCCCCNC(=N)NC(=N)Nc1ccc(Cl)cc1)Nc1ccc(Cl)cc1` [chlorhexidine, 1,6-bis-(p-chlorophenylbiguanidino)hexane]: the MIC worked out at 1.56 µg/mL (≈ 3.09 µM) in the data set on E. coli; 12.5 µg/mL (≈ 24.7 µM) in the data set with A. niger; 0.39 µg/mL (≈ 0.772 µM) with S. aureus; 50 µg/mL (≈ 98.9 µM) in the data set with Ps. aeruginosa; 3.12 µg/mL (≈ 6.17 µM) in the data set with C. albicans. Further, in data set [3], the “taste perception of foodstuffs” value is recorded as “alter taste perception of foodstuffs for several hours”. In addition, in data set [3], the clinical antiplaque effectiveness entry is reported as “clinically effective antiplaque agents”. Also, in data set [3], the local irritation entry was “produce local irritation of the oral mucosa and tongue”. In addition, the “staining of teeth, tongue, gums, oral mucosa” value in data set [3] was “produce stains of various colors on the teeth, tongue, gums, oral mucosa; also recorded: staining of the teeth, tongue, and gums”. The discoloration of teeth result in data set [2] is “greyish-brown discoloration”. In data set [2] (0.2% versus 1%), the “dependence of amount of discoloration on concentration” value is listed as “independent of the concentration”.
